Assay results from US20240041840A1 (Areteia Therapeutics, Inc., priority 2020, published 2024).
Where two headings read alike, the source gives them in different places.

Assays:
[1] = tested on: subjects with eosinophilic asthma
Method: (§1) Pulmonary function is measured by performing a spirometry, which measures forced expiratory volume in is (FEV1), the volume of air moved in the first second of exhalation, this is a well-accepted measure of asthma. Forced vital capacity (FVC) is the total volume of air exhaled during the entire forced expiratory volume (FEV) test. The FEV1/FVC ratio is a calculated measure that may provide a more specific measure of bronchoconstriction, independent of processes such as air trapping. Pulmonary function testing can be tested pre-bronchodilator (after waiting a sufficient time so that all bronchodilator medications have cleared) or post-bronchodilator, typically 15-30 minutes after inhaling a short-acting bronchodilator, such as albuterol. Bronchodilator reversibility (BDR) is calculated and assessed by analyzing FEV1 pre- and post-bronchodilator, and calculating the change both as absolute (ml) and percentage change.
Although some of the responsible factors are modifiable, such as suboptimal medication adherence and poor inhaler technique, others reflect intrinsic deficiencies in available asthma pharmacotherapy. This deficiency is particularly apparent in patients prone to severe asthma exacerbations. […] However, all of the biologics require parenteral administration. […] A 4-arm dose ranging placebo-controlled design was chosen to provide a range of drug exposure. Blood eosinophil lowering was chosen as the primary endpoint to facilitate identification of the lowest effective dose for use in future clinical development. The Primary Assessment Period of 12 weeks was chosen to provide adequate time to observe both pharmacodynamic endpoints, such as eosinophil lowering, as well as the clinical endpoints that may improve as a consequence of eosinophil lowering (FEV1, FVC, ACQ-6, ACQ-7, and AQLQ). The 12-week Eosinophil Recovery Period was chosen based on expected recovery to near baseline count in most subjects.

blood eosinophils = settings: 150 mg twice daily, after 6 months, open label, 16 subjects with eosinophilic chronic rhinosinusitis with nasal polyps
[2] = tested on: eosinophil peroxidase (EPX); settings: worded as embodiment
Method: Eosinophil peroxidase (EPX) is a granule protein uniquely secreted by eosinophils which can be detected and quantified using an enzyme-linked immunosorbent assay (ELISA). EPX is measured from mucosal swabs or sputum samples. […] In embodiments, normal nasal EPX levels are less than about 10 ng/mg of total protein, whereas moderate to severe asthma of the eosinophilic phenotype may be diagnosed as having nasal EPX levels greater than about 10 ng/mg of total protein. […] Normal induced sputum EPX levels may be less than about 200 ng/mL/g recovered sputum, whereas moderate to severe asthma of the eosinophilic phenotype is diagnosed as having induced sputum EPX levels greater than about 200 ng/mL/g recovered sputum.
Evaluation of Efficacy: Blood eosinophil count, changes in pulmonary function (FEV1), Asthma Control Questionnaire (ACQ-6), Asthma Control Questionnaire (ACQ-7), Asthma Quality of Life Questionnaire (AQLQ), exhaled nitric oxide, pharyngeal and nasal eosinophil peroxidase were collected periodically during the study.

[3] = tested on: subjects with eosinophilic chronic rhinosinusitis with nasal polyps; settings: 150 mg twice daily
Text: Current asthma medications work in a variety of ways. […] The co-primary endpoints were change in AEC and change in total polyp score (TPS) from baseline to Month 6, with additional clinical and histologic endpoints assessed.

[4] = tested on: subjects with eosinophilic asthma; settings: for Post-Bronchodilator FEV1 Reversibility % change, mean / Post-Bronchodilator FEV1 Reversibility % change, median / Post-Bronchodilator FEV1 Reversibility change, mean / Post-Bronchodilator FEV1 Reversibility change, median / Post-Bronchodilator FEV1 Reversibility observed, mean / Post-Bronchodilator FEV1 Reversibility observed, median: Week 12
Method: as §1
Table 10 provides the data for analyzing bronchodilator reversibility, the % improvement in FEV1 pre/post albuterol bronchodilator (same day). The study entry criteria required ≥12% and ≥200 mL at screening. These values are accepted in the diagnosis of asthma.

[5] = tested on: subjects with eosinophilic asthma; remark: listed apart in the source
Text: Evaluation of Safety: Physical examination, vital signs (systolic and diastolic blood pressure, respiratory rate, heart rate, and temperature), body weight, 12-lead ECG, clinical laboratory evaluations (hematology, blood chemistry, and urinalysis), pregnancy testing, adverse event monitoring, and concomitant medication were monitored throughout the study. […] A neutropenia case report form was utilized during the study to capture detailed clinical information concurrent with any laboratory events of neutropenia.

[6] = 12 subjects with a history of asthma

SMILES: CCCN[C@@H]1CCc2nc(N)sc2C1 [dexpramipexole, (6R)-2-amino-4,5,6,7-tetrahydro-6-(propylamino) benzothiazole]
- Pre-Bronchodilator FVC, % change from Baseline, mean ([1]; 75 mg/day, Week 4): 2.82%
- Pre-bronchodilator FVC change from Baseline LSM ([1]; 75 mg/day, Week 4): 0.0925
- Pre-bronchodilator FVC difference versus Placebo LSM ([1]; 75 mg/day, Week 4): 0.0785
- Pre-Bronchodilator FVC, % change from Baseline, mean ([1]; 75 mg/day, Week 8): 7.17%
- Pre-bronchodilator FVC change from Baseline LSM ([1]; 75 mg/day, Week 8): 0.155
- Pre-bronchodilator FVC difference versus Placebo LSM ([1]; 75 mg/day, Week 8): 0.149
- Pre-Bronchodilator FVC, % change from Baseline, mean ([1]; 75 mg/day, Week 12): 7.93%
- Pre-bronchodilator FVC change from Baseline LSM ([1]; 75 mg/day, Week 12): 0.181
- Pre-bronchodilator FVC difference versus Placebo LSM ([1]; 75 mg/day, Week 12): 0.140
- Pre-Bronchodilator FVC, % change from Baseline, mean ([1]; 75 mg/day, Week 16 or Week 18): 13.4%
- Pre-bronchodilator FVC change from Baseline LSM ([1]; 75 mg/day, Week 16 or Week 18): 0.297
- Pre-bronchodilator FVC difference versus Placebo LSM ([1]; 75 mg/day, Week 16 or Week 18): 0.329
- Pre-Bronchodilator FVC, % change from Baseline, mean ([1]; 150 mg/day, Week 4): 3.54%
- Pre-bronchodilator FVC change from Baseline LSM ([1]; 150 mg/day, Week 4): 0.122
- Pre-bronchodilator FVC difference versus Placebo LSM ([1]; 150 mg/day, Week 4): 0.108
- Pre-Bronchodilator FVC, % change from Baseline, mean ([1]; 150 mg/day, Week 8): 5.28%
- Pre-bronchodilator FVC change from Baseline LSM ([1]; 150 mg/day, Week 8): 0.152
- Pre-bronchodilator FVC difference versus Placebo LSM ([1]; 150 mg/day, Week 8): 0.146
- Pre-Bronchodilator FVC, % change from Baseline, mean ([1]; 150 mg/day, Week 12): 3.63%
- Pre-bronchodilator FVC change from Baseline LSM ([1]; 150 mg/day, Week 12): 0.0714
- Pre-bronchodilator FVC difference versus Placebo LSM ([1]; 150 mg/day, Week 12): 0.0304
- Pre-Bronchodilator FVC, % change from Baseline, mean ([1]; 150 mg/day, Week 16 or Week 18): 7.33%
- Pre-bronchodilator FVC change from Baseline LSM ([1]; 150 mg/day, Week 16 or Week 18): 0.143
- Pre-bronchodilator FVC difference versus Placebo LSM ([1]; 150 mg/day, Week 16 or Week 18): 0.175
- Pre-Bronchodilator FVC, % change from Baseline, mean ([1]; 300 mg/day, Week 4): 1.91%
- Pre-bronchodilator FVC change from Baseline LSM ([1]; 300 mg/day, Week 4): 0.0983
- Pre-bronchodilator FVC difference versus Placebo LSM ([1]; 300 mg/day, Week 4): 0.0844
- Pre-Bronchodilator FVC, % change from Baseline, mean ([1]; 300 mg/day, Week 8): 11.5%
- Pre-bronchodilator FVC change from Baseline LSM ([1]; 300 mg/day, Week 8): 0.322
- Pre-bronchodilator FVC difference versus Placebo LSM ([1]; 300 mg/day, Week 8): 0.316
- Pre-Bronchodilator FVC, % change from Baseline, mean ([1]; 300 mg/day, Week 12): 8.95%
- Pre-bronchodilator FVC change from Baseline LSM ([1]; 300 mg/day, Week 12): 0.257
- Pre-bronchodilator FVC difference versus Placebo LSM ([1]; 300 mg/day, Week 12): 0.216
- Pre-Bronchodilator FVC, % change from Baseline, mean ([1]; 300 mg/day, Week 16 or Week 18): 9.11%
- Pre-bronchodilator FVC change from Baseline LSM ([1]; 300 mg/day, Week 16 or Week 18): 0.267
- Pre-bronchodilator FVC difference versus Placebo LSM ([1]; 300 mg/day, Week 16 or Week 18): 0.299
- Lowering of the AEC (blood eosinophils): 94%
- Reduction of the level of nasal EPX ([2]; daily dose of about 75 mg): about 36%
- Reduction of the level of nasal EPX ([2]; daily dose of about 150 mg): about 83%
- Reduction of the level of nasal EPX ([2]; daily dose of about 300 mg): about 89%
- Total polyp score (TPS), mean ([3]; 3 months (Baseline 5.29)): 5.50
- Other indices of chronic rhinosinusitis disease activity (SNOT-22, sinus CT score, Sniffin Sticks olfaction test) ([3]; 6 month trial): not improved
- Total polyp score (TPS), mean ([3]; 6 months (Baseline 5.29)): 5.42
- ACQ6 values [3, 6]: unchanged
- FEV1 values [3, 6]: unchanged
- Post-Bronchodilator FEV1 Reversibility % change, mean ([4]; 75 mg/day): −58.7%
- Post-Bronchodilator FEV1 Reversibility % change, median ([4]; 75 mg/day): −49.9%
- Post-Bronchodilator FEV1 Reversibility change, mean ([4]; 75 mg/day): -112 mL
- Post-Bronchodilator FEV1 Reversibility change, median ([4]; 75 mg/day): -55.0 mL
- Post-Bronchodilator FEV1 Reversibility observed, mean ([4]; 75 mg/day): 264 mL
- Post-Bronchodilator FEV1 Reversibility observed, median ([4]; 75 mg/day): 235 mL
- Post-Bronchodilator FEV1 Reversibility % change, mean ([4]; 150 mg/day): −39.8%
- Post-Bronchodilator FEV1 Reversibility % change, median ([4]; 150 mg/day): −9.68%
- Post-Bronchodilator FEV1 Reversibility change, mean ([4]; 150 mg/day): -72.3 mL
- Post-Bronchodilator FEV1 Reversibility change, median ([4]; 150 mg/day): 0 mL
- Post-Bronchodilator FEV1 Reversibility observed, mean ([4]; 150 mg/day): 279 mL
- Post-Bronchodilator FEV1 Reversibility observed, median ([4]; 150 mg/day): 235 mL
- Post-Bronchodilator FEV1 Reversibility % change, mean ([4]; 300 mg/day): −19.6%
- Post-Bronchodilator FEV1 Reversibility % change, median ([4]; 300 mg/day): −19.0%
- Post-Bronchodilator FEV1 Reversibility change, mean ([4]; 300 mg/day): -109 mL
- Post-Bronchodilator FEV1 Reversibility change, median ([4]; 300 mg/day): -50.0 mL
- Post-Bronchodilator FEV1 Reversibility observed, mean ([4]; 300 mg/day): 336 mL
- Post-Bronchodilator FEV1 Reversibility observed, median ([4]; 300 mg/day): 290 mL
- Bronchodilator reversibility ([4]; Week 12, 3 DEX arms vs. placebo): preserved
- Safety and tolerability ([5]; 300 mg/day and 150 mg/day doses, KNS-760704-AS201 trial): Lastly, the excellent safety and tolerability of the above doses in the KNS-760704-AS201 trial and in previous
- Tolerability ([5]; across all dose levels (75, 150, 300 mg/day, 12 weeks)): well-tolerated
